According to patent publication US20100151520A1, “Translation Enhancer Elements Of Genes Encoding Human Tau Protein and Human Alpha-Synuclein Protein” (priority 2004, published 2010):
“Also recorded” adds a separate entry of the source.

What was measured:
α-synuclein protein = assay: Western blot of α-synuclein protein levels in treated SY5Y neuroblastoma cells; assay type: cell-based, human
α-synuclein 5′ UTR = assay: Luciferase reporter assay, α-synuclein 5′UTR-pGL3 transfected neuroblastoma cells; assay type: cell-based, human; conditions: 48 hours, luciferase controlled by α-synuclein 5′ UTR
Experimental: (§1) To determine whether α-synuclein 5′UTR sequences were iron responsive SH-SY5Y transfection experiments were performed using an ASN 5′UTR pGL3 construct compared to pGL3, and control vector in which the luciferase expression was translated in the absence of the α-synuclein 5′UTR.
A 46 base sequence (SEQ ID NO:21) of the α-synuclein 5′ UTR was synthesized with a HindIII site at the 5′ end and a Nco I site at the 3′ end (Integrated DNA Technologies, Coralville, Iowa) and then ligated into a pGL-3 vector (Promega, Madison Wis.) immediately in front of the luciferase gene, under the control of a SV40 promotor. Wild-type pGL3 or pGL3 containing the α-synuclein 5′ UTR insert upstream of the luciferase promotor (α-synuclein 5′UTR-pGL3) were used. Expression of green fluorescent protein (GFP) within the pGL3 vector, controlled by a SV40 late poly(A) signal was used to control for transfection efficiency. 8×10^5 neuroblastoma HYSY cells were seeded for 24 hours in 60-mm^2 dishes with 5 ml Dulbeccco's modified medium containing 10% fetal bovine serum. For transfection, cells were first rinsed 3× in Phosphate Buffered Saline (PBS) and then treated with 5 μg of purified DNA combined with PolyFect transfection reagent and growth medium, according to the manufacturer's specifications (Qiagen). After a 24 hours incubation at 37° and 5% CO2 to maximize transfection efficiency, cells were washed in PBS 3×, trypsonized and plated to 95% confluence in 96-well plates. Cells were allowed to seed in the 96-well plates for 12 hours in Dulbecco's modified medium containing 10% fetal bovine serum and ampicillin, to select for cells containing the plasmid, which contained an ampicillin resistance gene. […] Treatment medium was prepared fresh the day of experiment and incubated for 1 hour at 37° prior to the experiment to maximize solubility. […] Cells were lysed with 1× Bright-glo luciferase assay buffer and the lysates combined with bright-glo luciferase assay substrate warmed to 37°, according to the specifications of the manufacturer (Promega, Madison, Wis.). All experiments were performed in triplicate. Automated luciferase assays were performed with a Wallac 1420 multi-label counter. GFP expression was quantified at 489/509 nm with the same Wallac 1420 counter to control for transfection efficiency.

α-synuclein mRNA = assay: Quantitative real-time PCR of α-synuclein mRNA levels in SY5Y cells; assay type: cell-based, human; conditions: 6 or 16 hours, relative to beta actin (FIG. 4)
Experimental: (§2) Quantitative real-time PCR (qRTPCR) was used to measure steady-state mRNA levels for α-synuclein mRNA relative to […] in response to iron. Neuroblastoma (SY5Y) cells were treated with iron or desferrioxamine (DFO) for 6 hours or 16 hours and control cells were left untreated (U) for the same indicated times (i.e., 6 hours untreated=U6, and 16 hours untreated=U16). TfR mRNA was the experimental positive control mRNA.
(§3) The qRTPCR was conducted as follows. Total RNA was isolated from iron and desferrioxamine treated neuroblastoma cell line, SH-SY5Y according to manufacturers specification (RNAeasy Mini Kit, Qiagen, Valencia, Calif.). The optional on-column DNase digestion with the RNase-Free DNase set (Qiagen) was incorporated into all RNA isolations.
3 μg total RNA was primed with oligo-dT and the Superscript II enzyme according to manufacturer's instructions (Invitrogen, Carlsbad, Calif.) to synthesize […] cDNA. For qRTPCR, primer specificity was initially verified by searching for homology to genomic databases using NCBI BLAST. After completion of qRTPCR, the appropriately sized amplicon were confirmed by agarose gel electrophoresis. […] Fluorescence was measured at the end of each annealing cycle using the ABI Prism 7000 (Applied Biosystems, Foster City, Calif.). Average threshold cycle (Ct) values were measured in the exponential phase of the PCR reaction for each duplicate sample. […] Relative expression of the treated samples was determined by first normalizing against that of the untreated samples (ΔCT^sample−ΔCT^normal=ΔΔCT) and then calculating the fold change (fold change=2^−ΔΔCt).
(§4) Primers used for quantitative real-time PCR were as follows: […]
The details of the annealing temperature are as follows. […] The dsDNA-specific dye SYBR Green I incorporated into the PCR reaction buffer QuantiTech™ SYBR PCR (Qiagen) to allow for quantitative detection of the PCR product in a 25-μl reaction volume. […]

Tau mRNA = assay: Quantitative real-time PCR of Tau mRNA levels in SY5Y cells; assay type: cell-based, human; conditions: for Tau mRNA levels: 6 or 16 hours (100 μM DFO where stated), FIG. 5
Experimental: Quantitative real-time PCR (QRTPCR) was performed on RNA extracted from iron/zinc and desferrioxamine treated mRNA. Methods for QRTPCR were as described for priming an α-synuclein amplicon (see Example 1) except that oligonucleotides were (NM016835Rev) 5′[…]3′ (SEQ ID NO:15) and (NM 016835For) 5′[…]3′ (SEQ ID NO:16).
(§5) Neuroblastoma cells (SY5Y) were treated with each agent for 6 hours or 16 hours and control cells were left untreated (U) for the same indicated times (i.e., 6 hours untreated=U6, and 16 hours untreated=U16).

wild-type pGL3 vector = assay: Luciferase reporter assay, wild-type pGL3 control vector; assay type: cell-based
Experimental: as §1
A 46 base sequence (SEQ ID NO:21) of the α-synuclein 5′ UTR was synthesized with a HindIII site at the 5′ end and a Nco I site at the 3′ end (Integrated DNA Technologies, Coralville, Iowa) and then ligated into a pGL-3 vector (Promega, Madison Wis.) immediately in front of the luciferase gene, under the control of a SV40 promotor. Wild-type pGL3 or pGL3 containing the α-synuclein 5′ UTR insert upstream of the luciferase promotor (α-synuclein 5′UTR-pGL3) were used. Expression of green fluorescent protein (GFP) within the pGL3 vector, controlled by a SV40 late poly(A) signal was used to control for transfection efficiency. 8×10^5 neuroblastoma HYSY cells were seeded for 24 hours in 60-mm^2 dishes with 5 ml Dulbeccco's modified medium containing 10% fetal bovine serum. […] GFP expression was quantified at 489/509 nm with the same Wallac 1420 counter to control for transfection efficiency.

[1] = tested on: Transferrin receptor mRNA (TfR mRNA); assay: Quantitative real-time PCR of transferrin receptor mRNA (positive control) in SY5Y cells; assay type: cell-based
Experimental: as §2, §3
3 μg total RNA was primed with oligo-dT and the Superscript II enzyme according to manufacturer's instructions (Invitrogen, Carlsbad, Calif.) to synthesize […] cDNA. For qRTPCR, primer specificity was initially verified by searching for homology to genomic databases using NCBI BLAST. After completion of qRTPCR, the appropriately sized amplicon were confirmed by agarose gel electrophoresis. All reactions were performed in duplicate in a 50 μl volume consisting of 3 μl cDNA, […] each of the forward and reverse primer of β-Actin and […] each of the forward and reverse primer of all other primer pairs, and the fluorescent SYBR Green I dye. Fluorescence was measured at the end of each annealing cycle using the ABI Prism 7000 (Applied Biosystems, Foster City, Calif.). Average threshold cycle (Ct) values were measured in the exponential phase of the PCR reaction for each duplicate sample. Average Ct values were normalized against that β-Actin amplified in parallel from the same sample. Relative expression of the treated samples was determined by first normalizing against that of the untreated samples (ΔCT^sample−ΔCT^normal=ΔΔCT) and then calculating the fold change (fold change=2^−ΔΔCt).
as §4
The details of the annealing temperature are as follows. […] For real-time PCR, the cDNA was amplified using an ABI PRISM 7000 Sequence Detection System (PE Applied Biosystems, Foster City, Calif.). The dsDNA-specific dye SYBR Green I incorporated into the PCR reaction buffer QuantiTech™ SYBR PCR (Qiagen) to allow for quantitative detection of the PCR product in a 25-μl reaction volume. The temperature profile of the reaction was 95° C. for 10 min, 40 cycles of denaturation at 95° C. for 15 sec, annealing at 60° C. for 30 sec, and extension at 72° C. for 30 sec. An internal housekeeping gene control, β-actin, was used to normalize differences in RNA isolation, RNA degradation, and the efficiencies of the RT. The size of the PCR product was first verified on a 1.5% agarose gel, followed by melting curve analysis.
as §5

[2] = molecular target: T1, Iron-Regulatory Protein-1 (IRP-1) binding to α-synuclein mRNA (Homo sapiens, UniProt P21399); assay: Immunoprecipitation RT-PCR of α-synuclein mRNA bound to IRP-1 in SH-SY5Y lysates; assay type: cell-based; conditions: iron-treated SH-SY5Y cells, FIG. 6B
T1 construct: endogenous in cells; host or cells: SH-SY5Y neuroblastoma cells (lysates after treatment of the cells)
T1 sequence (P21399 1-889): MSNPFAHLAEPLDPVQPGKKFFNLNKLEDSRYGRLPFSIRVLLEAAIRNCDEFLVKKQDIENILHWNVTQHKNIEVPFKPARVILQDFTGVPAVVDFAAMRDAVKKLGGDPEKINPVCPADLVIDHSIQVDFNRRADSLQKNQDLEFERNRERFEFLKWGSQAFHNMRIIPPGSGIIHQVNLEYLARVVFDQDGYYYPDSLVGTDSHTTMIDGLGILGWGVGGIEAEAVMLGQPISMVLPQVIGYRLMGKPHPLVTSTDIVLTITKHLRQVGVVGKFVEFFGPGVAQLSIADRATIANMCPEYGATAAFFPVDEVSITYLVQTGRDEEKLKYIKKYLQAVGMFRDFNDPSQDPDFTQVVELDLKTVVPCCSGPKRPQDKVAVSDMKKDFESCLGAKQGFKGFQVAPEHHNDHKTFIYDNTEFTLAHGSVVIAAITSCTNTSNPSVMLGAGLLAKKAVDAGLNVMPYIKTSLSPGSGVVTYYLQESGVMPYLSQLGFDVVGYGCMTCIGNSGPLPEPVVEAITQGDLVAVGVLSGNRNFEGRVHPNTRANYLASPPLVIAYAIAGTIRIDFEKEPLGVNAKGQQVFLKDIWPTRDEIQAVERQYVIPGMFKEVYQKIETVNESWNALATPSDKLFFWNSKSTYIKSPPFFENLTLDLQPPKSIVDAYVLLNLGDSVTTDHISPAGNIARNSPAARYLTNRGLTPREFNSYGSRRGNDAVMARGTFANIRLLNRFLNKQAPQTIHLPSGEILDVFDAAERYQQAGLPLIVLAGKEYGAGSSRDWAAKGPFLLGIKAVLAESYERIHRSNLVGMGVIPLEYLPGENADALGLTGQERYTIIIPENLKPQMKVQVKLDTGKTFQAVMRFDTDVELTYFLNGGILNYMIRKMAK
Experimental: Neuroblastoma cells were treated with (i) DFO ([…]), (ii) feTf (10 μM) or remained untreated. Cells were lysed in RIPA buffer, and cytosolic extracts were immunoprecipitated with antibody to IRP-1 and IRP-2. After washing with Fe-beads the bound mRNA or superatant RNA was reverse transcribed and the mRNAs attached to the IRP-1/IRP—2 were identified by immunoprecipitation of RNA that selectively interacted with IRP-1/IRP-2 (method of Thomson, A. M., et al., Biol. Chem. 2005 Aug. 26; 280(34):30032-45. Epub 2005 Jun. 20.
We tested whether α-synuclein mRNA interacted with IRP-1 or IRP-2 by use of an RNA co-immunoprecipitation technique shown in FIG. 6. In this IPRT-PCR experiment α-synuclein mRNA was selectively co-immunoprecipitated with IRP-1 from neuroblastoma lysates (the presence of ASN mRNA was detected by PCR of cDNA reverse transcribed from mRNA immunopreciptated with IRP-1 on washed beads according to standard methods (Thomson, A. M., et al., (2005) J Biol Chem 280, 30032-30045). Ferritin mRNA was selectively immunopreciptated with both IRP-1 and IRP-2, whereas α-synuclein mRNA was selectively bound to IRP-1, not IRP-2. This technique was semi qualitative PCR, though the amount of α-synuclein mRNA attached IRP-1 was iron dependent in the experiment shown in FIG. 6B. […]

CC(=O)N(O)CCCCCNC(=O)CCC(=O)N(O)CCCCCNC(=O)CCC(=O)N(O)CCCCCN [DFO, desferrioxamine]
steady-state levels of α-synuclein protein (α-synuclein protein; 100 μM DFO (16 h)): reduced
intracellular levels of α-synuclein protein (α-synuclein protein; short-term (6 h) and long-term (3 d) desferrioxamine treatment): dramatic reduction
decrease in luminescence (α-synuclein 5′ UTR; 50 mM DFO): 25%
decrease in luminescence (α-synuclein 5′ UTR; 100 mM DFO, p<0.001): 50%
α-synuclein mRNA levels (α-synuclein mRNA): unchanged; also recorded: not modulated
α-synuclein mRNA levels (α-synuclein mRNA; listed as desferrioxamine): unchanged
Tau mRNA levels (Tau mRNA): up-regulated; also recorded: dramatically changed
increase in induction for Tau mRNA (Tau mRNA; 16 hours treatment with DFO, relative to beta actin): 5 fold
effect on luciferase activity (wild-type pGL3 vector): no effect
TfR mRNA up-regulation in response to DFO ([1]; DFO (100 μM where stated), FIG. 4, relative to beta actin): 3 fold
TfR mRNA up-regulation in response to DFO ([1]; FIG. 5 (Tau experiment), 16 hours DFO where stated): 4.5 fold

ferric ammonium citrate [FAC]
α-synuclein protein levels (monomer, 15 kDa) (α-synuclein protein; 100 μM FAC, 6 hour and 3 days, Western blot (FIG. 3)): increase
increase in luminescence (α-synuclein 5′ UTR; 10 mg/ml FAC): 5 fold
increase in luminescence (α-synuclein 5′ UTR; 100 mg/ml FAC, p<0.001): 20 fold
α-synuclein mRNA levels (α-synuclein mRNA): did not change as significantly although it was reduced; also recorded: not modulated
Tau mRNA levels (Tau mRNA): down regulated
effect on luciferase activity (wild-type pGL3 vector): no effect
TfR mRNA reduction by FAC ([1]; FIG. 5 (Tau experiment)): 4 fold

iron
fold reduction for Tau mRNA (Tau mRNA; 400 micromolar iron (16 h)): 0.66 fold
fold reduction for TfR mRNA ([1]; 400 micromolar iron (16 h), FIG. 5): 0.45 fold
IRP-1 binding (to α-synuclein mRNA) [2]: reduced

zinc
TfR mRNA responsiveness to zinc (control for iron specificity) ([1]; FIG. 5): surprisingly responsive
